Results as given in patent publication US6737383B1, “Herbicidal oxadiazolidines” (priority 1999, dated 2004).

Assays:
crabgrass = test: Test B pre/postemergence crabgrass; assay type: in vivo, Digitaria sanguinalis
Outline: (§1)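 Herbicidal effect was estimated by eye on a ten-point control scale after plants spent twelve to sixteen days in a greenhouse following soil or foliar treatment. Foliar sprays targeted plants at one to four leaves; all doses were formulated in a non-phytotoxic solvent with surfactant.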

velvetleaf = test: Test B pre/postemergence velvetleaf; assay type: in vivo, Abutilon theophrasti
Outline: as §1

bamyardgrass = test: Test B flood test barnyardgrass; assay type: in vivo, Echinochloa crus-galli; settings: Pre-emergence
Outline: (§2)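 Plants were grown to the 2-leaf stage before treatment with test chemical, then held in a greenhouse for twelve to sixteen days. Injury was visually rated against untreated controls on a 0–10 scale, where 0 is no effect and 10 is complete control.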

wild oat = test: Test B pre/postemergence wild oat; assay type: in vivo, Avena fatua
Outline: as §1

blackgrass = test: Test B pre/postemergence blackgrass; assay type: in vivo, Alopecurus myosuroides
Outline: as §1

smallflower flatsedge = test: Test B flood test smallflower flatsedge; assay type: in vivo, Cyperus difformis; settings: Pre-emergence
Outline: as §2

rice = test: Test B flood test rice; assay type: in vivo, Oryza sativa; settings: Pre-emergence
Outline: as §2

soybean = test: Test B pre/postemergence soybean; assay type: in vivo, Glycine max
Outline: as §1

morningglory = test: Test B pre/postemergence morningglory; assay type: in vivo, Ipomoea hederacea
Outline: as §1

pigweed = test: Test B pre/postemergence pigweed; assay type: in vivo, Amaranthus retroflexus
Outline: as §1

surinam grass = test: Test B pre/postemergence surinam grass; assay type: in vivo, Brachiaria decumbens
Outline: as §1

wheat = test: Test B pre/postemergence wheat; assay type: in vivo, Triticum aestivum
Outline: as §1

giant foxtail = test: Test B pre/postemergence giant foxtail; assay type: in vivo, Setaria faberii
Outline: as §1

cocklebur = test: Test B pre/postemergence cocklebur; assay type: in vivo, Xanthium strumarium
Outline: as §1

corn = test: Test B pre/postemergence corn; assay type: in vivo, Zea mays
Outline: as §1

bedstraw = test: Test B pre/postemergence bedstraw; assay type: in vivo, Galium aparine
Outline: as §1

[1] = Postemergence, Rate 1000 g/ha, scale 0 to 10 (0 no effect, 10 complete control)
[2] = Preemergence, Rate 250 g/ha, scale of 0 to 10 where 0 is no effect and 10 is complete control
[3] = Preemergence, Rate 500 g/ha, scale of 0 to 10 where 0 is no effect and 10 is complete control
[4] = Rate 125 g/ha, Postemergence, scale of 0 to 10 where 0 is no effect and 10 is complete control
[5] = Rate 125 g/ha, Preemergence, scale of 0 to 10 where 0 is no effect and 10 is complete control
[6] = Rate 250 g/ha, Postemergence, scale of 0 to 10 where 0 is no effect and 10 is complete control
[7] = Rate 500 g/ha, Postemergence, scale 0 to 10, 0 no effect, 10 complete control
[8] = Rate 1000 g/ha, Preemergence, scale 0 to 10 (0 no effect, 10 complete control)
[9] = Rate 1000 g/ha, scale 0 to 10 (0 no effect, 10 complete control)
[10] = Rate 125 g/ha, flood test species, scale 0 to 10 where 0 is no effect and 10 is complete control
[11] = Rate 250 g/ha, flood-test species, scale 0 to 10, 0 is no effect, 10 is complete control
[12] = Rate 500 g/ha, flood test species, scale 0 to 10 (0 no effect, 10 complete control)

CCOC(=O)C(C)N(C(=O)n1oc(=O)n(C2CCCCC2)c1=O)c1ccc(F)cc1 (stereo not shown) [Compound 280]
Crabgrass plant response rating (crabgrass; [1]): 0 | Crabgrass plant response rating (crabgrass; [2]): 0 | Plant response rating, Crabgrass (crabgrass; [3]): 0 | Crabgrass plant response rating (crabgrass; [4]): 0 | Crabgrass plant response rating (crabgrass; [5]): 0 | Plant response rating, Crabgrass (crabgrass; [6]): 0 | Crabgrass plant response rating (crabgrass; [7]): 0 | Plant response rating, Crabgrass (crabgrass; [8]): 0 | Velvetleaf plant response rating (velvetleaf; [1]): 0 | Velvetleaf plant response rating (velvetleaf; [2]): 0 | Plant response rating, Velvetleaf (velvetleaf; [3]): 0 | Velvetleaf plant response rating (velvetleaf; [4]): 0 | Velvetleaf plant response rating (velvetleaf; [5]): 0 | Plant response rating, Velvetleaf (velvetleaf; [6]): 0 | Velvetleaf plant response rating (velvetleaf; [7]): 0 | Plant response rating, Velvetleaf (velvetleaf; [8]): 0 | Barnyardgrass plant response rating (bamyardgrass; [9]): 0 | Barnyardgrass plant response rating (bamyardgrass; [10]): 0 | Barnyardgrass plant response rating (bamyardgrass; [11]): 0 | Barnyardgrass plant response rating (bamyardgrass; [12]): 0 | Wild oats plant response rating (wild oat; [1]): 0 | Wild oats plant response rating (wild oat; [2]): 0 | Plant response rating, Wild oats (wild oat; [3]): 0 | Wild oats plant response rating (wild oat; [4]): 0 | Plant response rating, Wild oats (wild oat; [6]): 0 | Wild oats plant response rating (wild oat; [7]): 0 | Plant response rating, Wild oats (wild oat; [8]): 0 | Blackgrass plant response rating (blackgrass; [1]): 0 | Blackgrass plant response rating (blackgrass; [2]): 0 | Plant response rating, Blackgrass (blackgrass; [3]): 0 | Blackgrass plant response rating (blackgrass; [4]): 0 | Blackgrass plant response rating (blackgrass; [5]): 0 | Plant response rating, Blackgrass (blackgrass; [6]): 0 | Blackgrass plant response rating (blackgrass; [7]): 0 | Plant response rating, Blackgrass (blackgrass; [8]): 0 | S. Flatsedge plant response rating (smallflower flatsedge; [9]): 0 | S. Flatsedge plant response rating (smallflower flatsedge; [10]): 0 | S. Flatsedge plant response rating (smallflower flatsedge; [11]): 0 | S. Flatsedge plant response rating (smallflower flatsedge; [12]): 0 | Rice plant response rating (rice; [9]): 0 | Rice plant response rating (rice; [10]): 0 | Rice plant response rating (rice; [11]): 0 | Rice plant response rating (rice; [12]): 0 | Soybean plant response rating (soybean; [1]): 5 | Soybean plant response rating (soybean; [2]): 0 | Plant response rating, Soybean (soybean; [3]): 0 | Soybean plant response rating (soybean; [4]): 1 | Soybean plant response rating (soybean; [5]): 0 | Plant response rating, Soybean (soybean; [6]): 3 | Soybean plant response rating (soybean; [7]): 5 | Plant response rating, Soybean (soybean; [8]): 0 | Morningglory plant response rating (morningglory; [1]): 0 | Morningglory plant response rating (morningglory; [2]): 0 | Plant response rating, Morningglory (morningglory; [3]): 0 | Morningglory plant response rating (morningglory; [4]): 0 | Morningglory plant response rating (morningglory; [5]): 0 | Plant response rating, Morningglory (morningglory; [6]): 0 | Morningglory plant response rating (morningglory; [7]): 0 | Plant response rating, Morningglory (morningglory; [8]): 0 | Redroot pigweed plant response rating (pigweed; [1]): 3 | Redroot pigweed plant response rating (pigweed; [2]): 0 | Plant response rating, Redroot pigweed (pigweed; [3]): 0 | Redroot pigweed plant response rating (pigweed; [4]): 0 | Redroot pigweed plant response rating (pigweed; [5]): 0 | Plant response rating, Redroot pigweed (pigweed; [6]): 0 | Redroot pigweed plant response rating (pigweed; [7]): 1 | Plant response rating, Redroot pigweed (pigweed; [8]): 0 | B. signalgrass plant response rating (surinam grass; [1]): 0 | B. signalgrass plant response rating (surinam grass; [2]): 0 | Plant response rating, B. signalgrass (surinam grass; [3]): 0 | B. signalgrass plant response rating (surinam grass; [4]): 0 | B. signalgrass plant response rating (surinam grass; [5]): 0 | Plant response rating, B. signalgrass (surinam grass; [6]): 0 | B. signalgrass plant response rating (surinam grass; [7]): 0 | Plant response rating, B. signalgrass (surinam grass; [8]): 0 | Wheat plant response rating (wheat; [1]): 0 | Wheat plant response rating (wheat; [2]): 0 | Plant response rating, Wheat (wheat; [3]): 0 | Wheat plant response rating (wheat; [4]): 0 | Wheat plant response rating (wheat; [5]): 0 | Plant response rating, Wheat (wheat; [6]): 0 | Wheat plant response rating (wheat; [7]): 0 | Plant response rating, Wheat (wheat; [8]): 0 | Giant foxtail plant response rating (giant foxtail; [1]): 0 | Giant foxtail plant response rating (giant foxtail; [2]): 0 | Plant response rating, Giant foxtail (giant foxtail; [3]): 0 | Giant foxtail plant response rating (giant foxtail; [4]): 0 | Giant foxtail plant response rating (giant foxtail; [5]): 0 | Plant response rating, Giant foxtail (giant foxtail; [6]): 0 | Giant foxtail plant response rating (giant foxtail; [7]): 0 | Plant response rating, Giant foxtail (giant foxtail; [8]): 0 | Cocklebur plant response rating (cocklebur; [1]): 0 | Cocklebur plant response rating (cocklebur; [2]): 0 | Plant response rating, Cocklebur (cocklebur; [3]): 0 | Cocklebur plant response rating (cocklebur; [4]): 0 | Cocklebur plant response rating (cocklebur; [5]): 0 | Plant response rating, Cocklebur (cocklebur; [6]): 0 | Cocklebur plant response rating (cocklebur; [7]): 0 | Plant response rating, Cocklebur (cocklebur; [8]): 0 | Corn plant response rating (corn; [1]): 0 | Corn plant response rating (corn; [2]): 0 | Plant response rating, Corn (corn; [3]): 0 | Corn plant response rating (corn; [4]): 0 | Corn plant response rating (corn; [5]): 0 | Plant response rating, Corn (corn; [6]): 0 | Corn plant response rating (corn; [7]): 0 | Plant response rating, Corn (corn; [8]): 0 | Bedstraw plant response rating (bedstraw; [1]): 0 | Bedstraw plant response rating (bedstraw; [2]): 0 | Plant response rating, Bedstraw (bedstraw; [3]): 0 | Bedstraw plant response rating (bedstraw; [4]): 0 | Bedstraw plant response rating (bedstraw; [5]): 0 | Plant response rating, Bedstraw (bedstraw; [6]): 0 | Bedstraw plant response rating (bedstraw; [7]): 0 | Plant response rating, Bedstraw (bedstraw; [8]): 0
